From US11400091B2, “AXL kinase inhibitors and use of the same” (Sumitomo Pharma Oncology, Inc., priority 2018, dated 2022) come the findings set out here.

Data set [1] can be described thus: 28-day repeated oral dose toxicity and toxicokinetic study. Type of data set: in vivo, rats. The method, then: A control group (10 males/10 females) was dosed with the vehicle only. The progression or regression of any effects were evaluated during an additional 14-day treatment-free period in the control group and in rats dosed at 2 and 4 mg/kg/day.
Data set [2] deals with human hepatocytes. The experiment in a line: Metabolite formation after exposure to human hepatocytes. Conditions: share of parent or metabolite. The class given is in vitro ADME. On the procedure: Table 7A summarizes AXL inhibition and AUC data for representative metabolites of structure (IV).
In other related embodiments, the method further comprises incubating the population of cells (e.g., hepatocytes) with the therapeutic agent. In some embodiments, the incubating ranges from about 1.5 to about 2.5 hours. For example, in some embodiments the incubating is for about 2 hours. In some specific embodiments, the incubating ranges from about 0.5 to about 20 hours, about 0.25 to about 10 hours, about 0.15 to about 5 hours, about 0.5 to about 10 hours, about 0.5 to about 5 hours, about 0.5 to about 3 hours, about 0.25 to about 20 hours, about 0.25 to about 5 hours, about 0.25 to about 3 hours, about 0.15 to about 10 hours, or about 0.15 to about 3 hours.

`CN1CCN(Cc2ccc(Nc3ncc(Cl)c(Nc4ccccc4S(=O)(=O)N(C)C)n3)cc2)CC1` [compound of structure (I), 2-((5-chloro-2-((4-((4-methylpiperazin-1-yl)methyl)phenyl)amino)pyrimidin-4-yl)amino)-N,N-dimethylbenzenesulfonamide] returned an NOAEL at 28 days in data set [1] (both sexes, in vivo, rat GLP toxicology, 28 days oral) of 2 mg/kg. The half-life in data set [1] (both sexes, rat, in vivo, oral, dose groups of 2 and 4 mg/kg, read-out: elimination half-life (t1/2(e))) was in the range of 2.3 to 8.9 h. Also, the Tmax in data set [1] (both sexes, rat, in vivo, oral, majority of values, males and females) was 1 to 2 h. This compound gave an NOAEL in data set [1] (rat GLP toxicology, 28 days oral) of 12 mg/m^2. Besides, the “% after 2 hrs exposure to human hepatocytes” value in data set [2] came out at 55%.
